Legend:
Assay in all cases: radiometric filter-binding kinase assay, Kinase HotSpot
Settings in all cases: compound 0.5 µM; ATP 10 µM
AURKB (human) = AURKB (human) (UniProt Q96GD4)
AXL (human) = AXL (human) (UniProt P30530)
BLK (human) = BLK (human) (UniProt P51451)
BRSK2 (human) = BRSK2 (human) (UniProt Q8IWQ3)
CDK1 CCNA2 (human) = CDK1 CCNA2 (human) (UniProt P06493+P20248)
CDK2 CCNE1 (human) = CDK2 CCNE1 (human) (UniProt P24941+P24864)
CDK7 CCNH MNAT1 (human) = CDK7 CCNH MNAT1 (human) (UniProt P50613+P51948+P51946)
CSNK1G2 (human) = CSNK1G2 (human) (UniProt P78368)
CSNK1G3 (human) = CSNK1G3 (human) (UniProt Q9Y6M4)
CSNK2A1 (human) = CSNK2A1 (human) (UniProt P68400)
DDR2 (human) = DDR2 (human) (UniProt Q16832)
DYRK2 (human) = DYRK2 (human) (UniProt Q92630)
DYRK4 (human) = DYRK4 (human) (UniProt Q9NR20)
FER (human) = FER (human) (UniProt P16591)
FGR (human) = FGR (human) (UniProt P09769)
GRK4 (human) = GRK4 (human) (UniProt P32298)
GRK5 (human) = GRK5 (human) (UniProt P34947)
HIPK4 (human) = HIPK4 (human) (UniProt Q8NE63)
INSR (human) = INSR (human) (UniProt P06213)
JAK3 JH1 JH2 (human) = JAK3 JH1 JH2 (human) (UniProt P52333)
LIMK1 (human) = LIMK1 (human) (UniProt P53667)
LRRK2 (human) = LRRK2 (human) (UniProt Q5S007)
MAP3K3 (human) = MAP3K3 (human) (UniProt Q99759)
MAP3K8 (human) = MAP3K8 (human) (UniProt P41279)
MAP4K2 (human) = MAP4K2 (human) (UniProt Q12851)
MAPK8 (human) = MAPK8 (human) (UniProt P45983)
MST4 (human) = MST4 (human) (UniProt Q9P289)
NEK4 (human) = NEK4 (human) (UniProt P51957)
NEK6 (human) = NEK6 (human) (UniProt Q9HC98)
PIM3 (human) = PIM3 (human) (UniProt Q86V86)
PLK3 (human) = PLK3 (human) (UniProt Q9H4B4)
PRKD1 (human) = PRKD1 (human) (UniProt Q15139)
RIPK2 (human) = RIPK2 (human) (UniProt O43353)
ROCK2 (human) = ROCK2 (human) (UniProt O75116)
RPS6KA2 KD1 KD2 (human) = RPS6KA2 KD1 KD2 (human) (UniProt Q15349)
SGK2 (human) = SGK2 (human) (UniProt Q9HBY8)
SIK2 (human) = SIK2 (human) (UniProt Q9H0K1)
SRPK3 (human) = SRPK3 (human) (UniProt Q9UPE1)
STK16 (human) = STK16 (human) (UniProt O75716)
TEK (human) = TEK (human) (UniProt Q02763)
[1] = biological target: TYK2 JH1 catalytic (human) (UniProt P29597)
ULK2 (human) = ULK2 (human) (UniProt Q8IYT8)

MAP3K8 (human), sequence (P41279 whole entry, looked up): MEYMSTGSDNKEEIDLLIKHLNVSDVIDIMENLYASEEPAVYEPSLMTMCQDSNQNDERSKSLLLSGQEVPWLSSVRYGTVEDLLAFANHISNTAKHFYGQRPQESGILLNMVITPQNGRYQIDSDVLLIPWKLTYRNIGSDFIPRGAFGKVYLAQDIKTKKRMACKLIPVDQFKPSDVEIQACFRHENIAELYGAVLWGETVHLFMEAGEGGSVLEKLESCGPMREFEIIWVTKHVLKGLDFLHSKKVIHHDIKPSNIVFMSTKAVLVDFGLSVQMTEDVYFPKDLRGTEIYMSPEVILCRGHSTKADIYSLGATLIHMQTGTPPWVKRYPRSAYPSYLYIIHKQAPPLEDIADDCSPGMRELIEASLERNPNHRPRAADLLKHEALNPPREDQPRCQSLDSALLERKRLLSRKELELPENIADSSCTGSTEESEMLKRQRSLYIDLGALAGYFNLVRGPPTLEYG
MAP4K2 (human), sequence (Q12851 whole entry, looked up): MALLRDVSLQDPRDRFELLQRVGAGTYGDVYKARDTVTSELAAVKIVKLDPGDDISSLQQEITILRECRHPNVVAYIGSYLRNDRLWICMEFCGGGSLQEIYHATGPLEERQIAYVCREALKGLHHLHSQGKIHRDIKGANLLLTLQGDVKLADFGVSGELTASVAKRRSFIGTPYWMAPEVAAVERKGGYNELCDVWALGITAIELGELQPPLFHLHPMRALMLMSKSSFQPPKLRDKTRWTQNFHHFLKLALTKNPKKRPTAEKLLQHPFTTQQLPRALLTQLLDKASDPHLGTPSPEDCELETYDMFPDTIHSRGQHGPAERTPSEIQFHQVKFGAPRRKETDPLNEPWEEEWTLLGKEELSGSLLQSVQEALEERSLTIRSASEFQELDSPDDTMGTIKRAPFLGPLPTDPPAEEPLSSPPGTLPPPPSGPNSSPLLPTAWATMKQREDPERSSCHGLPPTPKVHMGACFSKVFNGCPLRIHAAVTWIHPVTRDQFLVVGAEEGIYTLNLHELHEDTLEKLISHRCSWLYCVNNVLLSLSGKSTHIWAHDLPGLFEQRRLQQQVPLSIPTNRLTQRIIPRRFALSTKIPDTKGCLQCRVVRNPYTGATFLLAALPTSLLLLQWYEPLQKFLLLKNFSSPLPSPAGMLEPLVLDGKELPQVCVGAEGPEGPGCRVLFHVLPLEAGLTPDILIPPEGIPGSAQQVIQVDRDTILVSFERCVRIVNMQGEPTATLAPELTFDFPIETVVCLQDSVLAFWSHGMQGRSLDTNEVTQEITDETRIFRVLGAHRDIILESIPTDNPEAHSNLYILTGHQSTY
BRSK2 (human), sequence (Q8IWQ3 whole entry, looked up): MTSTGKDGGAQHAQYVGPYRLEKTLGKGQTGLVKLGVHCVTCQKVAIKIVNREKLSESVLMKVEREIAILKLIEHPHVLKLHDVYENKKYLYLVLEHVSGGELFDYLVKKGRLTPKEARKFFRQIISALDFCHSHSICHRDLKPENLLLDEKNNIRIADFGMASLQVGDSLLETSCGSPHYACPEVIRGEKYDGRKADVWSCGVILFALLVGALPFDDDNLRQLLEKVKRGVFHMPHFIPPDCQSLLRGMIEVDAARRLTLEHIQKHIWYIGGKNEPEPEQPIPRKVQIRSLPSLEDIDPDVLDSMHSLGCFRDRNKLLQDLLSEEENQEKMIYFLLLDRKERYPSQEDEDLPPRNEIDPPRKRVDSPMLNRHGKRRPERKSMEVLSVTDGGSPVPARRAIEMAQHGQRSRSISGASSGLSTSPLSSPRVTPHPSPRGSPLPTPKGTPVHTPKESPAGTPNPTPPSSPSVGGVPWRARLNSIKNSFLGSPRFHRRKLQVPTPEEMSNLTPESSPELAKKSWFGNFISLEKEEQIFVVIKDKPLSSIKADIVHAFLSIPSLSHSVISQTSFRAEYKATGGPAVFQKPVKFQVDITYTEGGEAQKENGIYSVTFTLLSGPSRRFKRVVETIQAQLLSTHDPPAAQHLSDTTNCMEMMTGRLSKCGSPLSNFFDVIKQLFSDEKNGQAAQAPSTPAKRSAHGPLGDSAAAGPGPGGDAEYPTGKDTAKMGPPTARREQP
AURKB (human), sequence (Q96GD4 whole entry, looked up): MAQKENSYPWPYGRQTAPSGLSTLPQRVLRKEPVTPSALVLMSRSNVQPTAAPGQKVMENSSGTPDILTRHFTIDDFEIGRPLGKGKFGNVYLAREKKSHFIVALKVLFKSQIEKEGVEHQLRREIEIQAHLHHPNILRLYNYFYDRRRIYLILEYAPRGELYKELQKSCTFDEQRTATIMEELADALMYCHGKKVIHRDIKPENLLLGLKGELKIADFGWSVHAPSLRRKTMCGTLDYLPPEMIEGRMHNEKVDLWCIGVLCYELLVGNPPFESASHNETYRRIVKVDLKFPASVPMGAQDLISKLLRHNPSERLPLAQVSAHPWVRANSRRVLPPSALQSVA
DYRK4 (human), sequence (Q9NR20 whole entry, looked up): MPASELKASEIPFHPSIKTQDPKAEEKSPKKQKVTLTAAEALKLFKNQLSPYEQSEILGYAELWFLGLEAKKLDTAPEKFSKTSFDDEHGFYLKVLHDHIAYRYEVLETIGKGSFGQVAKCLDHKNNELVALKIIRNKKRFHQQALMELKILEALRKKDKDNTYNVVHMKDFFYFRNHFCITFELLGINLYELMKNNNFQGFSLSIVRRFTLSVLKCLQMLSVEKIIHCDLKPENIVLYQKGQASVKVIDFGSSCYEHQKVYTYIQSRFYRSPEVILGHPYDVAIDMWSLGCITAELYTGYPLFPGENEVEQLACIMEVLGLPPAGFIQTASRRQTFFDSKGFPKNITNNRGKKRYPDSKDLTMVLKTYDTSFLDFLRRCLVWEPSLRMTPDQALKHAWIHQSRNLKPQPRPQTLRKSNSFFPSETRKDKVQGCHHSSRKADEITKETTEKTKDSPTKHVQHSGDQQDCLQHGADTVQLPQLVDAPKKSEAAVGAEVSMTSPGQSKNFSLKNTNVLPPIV
RIPK2 (human), sequence (O43353 whole entry, looked up): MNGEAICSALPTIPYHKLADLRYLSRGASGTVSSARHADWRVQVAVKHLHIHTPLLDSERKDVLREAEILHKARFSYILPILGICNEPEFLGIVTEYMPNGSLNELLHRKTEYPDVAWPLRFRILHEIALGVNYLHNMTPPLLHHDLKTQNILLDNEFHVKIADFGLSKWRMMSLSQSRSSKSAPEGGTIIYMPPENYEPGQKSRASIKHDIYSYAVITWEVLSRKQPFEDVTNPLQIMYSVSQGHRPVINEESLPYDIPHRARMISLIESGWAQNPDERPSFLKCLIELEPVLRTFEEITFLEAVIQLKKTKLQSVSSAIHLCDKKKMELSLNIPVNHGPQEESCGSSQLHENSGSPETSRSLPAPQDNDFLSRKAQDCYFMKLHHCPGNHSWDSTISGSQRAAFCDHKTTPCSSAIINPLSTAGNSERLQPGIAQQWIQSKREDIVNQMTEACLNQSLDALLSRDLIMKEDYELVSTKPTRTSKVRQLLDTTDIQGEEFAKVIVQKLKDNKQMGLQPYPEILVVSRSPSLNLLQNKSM
GRK4 (human), sequence (P32298 whole entry, looked up): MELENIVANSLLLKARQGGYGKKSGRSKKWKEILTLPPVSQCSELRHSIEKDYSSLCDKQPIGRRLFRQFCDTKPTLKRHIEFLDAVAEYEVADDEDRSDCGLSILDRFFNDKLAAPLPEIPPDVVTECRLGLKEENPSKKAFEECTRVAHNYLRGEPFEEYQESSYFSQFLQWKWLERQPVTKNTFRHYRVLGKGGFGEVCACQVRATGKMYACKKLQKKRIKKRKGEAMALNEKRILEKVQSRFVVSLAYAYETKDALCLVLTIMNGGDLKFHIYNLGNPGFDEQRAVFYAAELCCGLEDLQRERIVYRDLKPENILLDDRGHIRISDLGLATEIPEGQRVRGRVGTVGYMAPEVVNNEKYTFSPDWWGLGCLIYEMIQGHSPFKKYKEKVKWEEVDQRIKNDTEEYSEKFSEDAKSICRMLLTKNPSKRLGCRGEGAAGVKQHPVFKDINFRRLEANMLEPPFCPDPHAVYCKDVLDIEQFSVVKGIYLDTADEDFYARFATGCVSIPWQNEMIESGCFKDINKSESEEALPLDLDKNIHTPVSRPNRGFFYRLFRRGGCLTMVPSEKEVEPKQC
MAP3K3 (human), sequence (Q99759 whole entry, looked up): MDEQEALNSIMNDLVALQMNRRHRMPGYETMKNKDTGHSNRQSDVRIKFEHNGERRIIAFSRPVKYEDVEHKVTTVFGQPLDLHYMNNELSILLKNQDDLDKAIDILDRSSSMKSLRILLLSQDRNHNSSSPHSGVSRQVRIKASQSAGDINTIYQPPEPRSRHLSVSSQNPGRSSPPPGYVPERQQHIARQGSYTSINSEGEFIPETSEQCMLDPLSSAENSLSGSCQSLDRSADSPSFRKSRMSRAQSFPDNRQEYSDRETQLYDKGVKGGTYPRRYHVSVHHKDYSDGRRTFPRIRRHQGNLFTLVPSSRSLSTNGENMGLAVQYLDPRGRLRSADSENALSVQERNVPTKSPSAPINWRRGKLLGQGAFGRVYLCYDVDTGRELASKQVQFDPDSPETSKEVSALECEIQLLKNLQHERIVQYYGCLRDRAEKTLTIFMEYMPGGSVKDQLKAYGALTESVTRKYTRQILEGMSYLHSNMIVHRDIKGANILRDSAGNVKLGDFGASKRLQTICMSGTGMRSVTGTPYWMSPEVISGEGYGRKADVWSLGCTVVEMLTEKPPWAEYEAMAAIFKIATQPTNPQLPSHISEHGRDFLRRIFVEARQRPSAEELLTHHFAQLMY

O=c1cc(-c2cccc3c2Sc2ccccc2S3)oc(N2CCOCC2)c1
residual activity (AURKB (human)): 95.8%
residual activity (AXL (human)): 106%
residual activity (BLK (human)): 96.2%
residual activity (BRSK2 (human)): 101%
residual activity (CDK1 CCNA2 (human)): 104%
residual activity (CDK2 CCNE1 (human)): 84.6%
residual activity (CDK7 CCNH MNAT1 (human)): 96.5%
residual activity (CSNK1G2 (human)): 93.3%
residual activity (CSNK1G3 (human)): 87.9%
residual activity (CSNK2A1 (human)): 97.4%
residual activity (DDR2 (human)): 99.2%
residual activity (DYRK2 (human)): 104%
residual activity (DYRK4 (human)): 105%
residual activity (FER (human)): 103%
residual activity (FGR (human)): 84.9%
residual activity (GRK4 (human)): 105%
residual activity (GRK5 (human)): 105%
residual activity (HIPK4 (human)): 100%
residual activity (INSR (human)): 105%
residual activity (JAK3 JH1 JH2 (human)): 108%
residual activity (LIMK1 (human)): 103%
residual activity (LRRK2 (human)): 102%
residual activity (MAP3K3 (human)): 137%
residual activity (MAP3K8 (human)): 103%
residual activity (MAP4K2 (human)): 109%
residual activity (MAPK8 (human)): 84%
residual activity (MST4 (human)): 90.4%
residual activity (NEK4 (human)): 90%
residual activity (NEK6 (human)): 103%
residual activity (PIM3 (human)): 52.3%
residual activity (PLK3 (human)): 98.1%
residual activity (PRKD1 (human)): 90.3%
residual activity (RIPK2 (human)): 114%
residual activity (ROCK2 (human)): 109%
residual activity (RPS6KA2 KD1 KD2 (human)): 81.4%
residual activity (SGK2 (human)): 115%
residual activity (SIK2 (human)): 113%
residual activity (SRPK3 (human)): 99.6%
residual activity (STK16 (human)): 95.5%
residual activity (TEK (human)): 100%
residual activity [1]: 95.8%
residual activity (ULK2 (human)): 123%

Nc1n[nH]c2nnc(-c3c(-c4ccccc4)nn4ccccc34)cc12
residual activity (AURKB (human)): 96.8%
residual activity (AXL (human)): 99.1%
residual activity (BLK (human)): 98.1%
residual activity (BRSK2 (human)): 96.1%
residual activity (CDK1 CCNA2 (human)): 101%
residual activity (CDK2 CCNE1 (human)): 101%
residual activity (CDK7 CCNH MNAT1 (human)): 99%
residual activity (CSNK1G2 (human)): 93.7%
residual activity (CSNK1G3 (human)): 104%
residual activity (CSNK2A1 (human)): 94.8%
residual activity (DDR2 (human)): 101%
residual activity (DYRK2 (human)): 103%
residual activity (DYRK4 (human)): 95.3%
residual activity (FER (human)): 90.8%
residual activity (FGR (human)): 92.9%
residual activity (GRK4 (human)): 103%
residual activity (GRK5 (human)): 106%
residual activity (HIPK4 (human)): 105%
residual activity (INSR (human)): 78.3%
residual activity (JAK3 JH1 JH2 (human)): 105%
residual activity (LIMK1 (human)): 98.2%
residual activity (LRRK2 (human)): 91.8%
residual activity (MAP3K3 (human)): 110%
residual activity (MAP3K8 (human)): 95%
residual activity (MAP4K2 (human)): 98.6%
residual activity (MAPK8 (human)): 98%
residual activity (MST4 (human)): 75.9%
residual activity (NEK4 (human)): 88.4%
residual activity (NEK6 (human)): 95.6%
residual activity (PIM3 (human)): 100%
residual activity (PLK3 (human)): 100%
residual activity (PRKD1 (human)): 68.4%
residual activity (RIPK2 (human)): 87%
residual activity (ROCK2 (human)): 89.6%
residual activity (RPS6KA2 KD1 KD2 (human)): 96.5%
residual activity (SGK2 (human)): 98.8%
residual activity (SIK2 (human)): 93.6%
residual activity (SRPK3 (human)): 88.9%
residual activity (STK16 (human)): 108%
residual activity (TEK (human)): 96.6%
residual activity [1]: 104%
residual activity (ULK2 (human)): 100%

CC(C)[C@H](CO)Nc1nc(Nc2cccc(Cl)c2)c2ncn(C(C)C)c2n1
residual activity (AURKB (human)): 97%
residual activity (AXL (human)): 94.7%
residual activity (BLK (human)): 68.8%
residual activity (BRSK2 (human)): 97.8%
residual activity (CDK1 CCNA2 (human)): 31.7%
residual activity (CDK2 CCNE1 (human)): 9.88%
residual activity (CDK7 CCNH MNAT1 (human)): 59.5%
residual activity (CSNK1G2 (human)): 32.4%
residual activity (CSNK1G3 (human)): 17.3%
residual activity (CSNK2A1 (human)): 101%
residual activity (DDR2 (human)): 99.1%
residual activity (DYRK2 (human)): 98.4%
residual activity (DYRK4 (human)): 91.2%
residual activity (FER (human)): 62.9%
residual activity (FGR (human)): 44.3%
residual activity (GRK4 (human)): 91.1%
residual activity (GRK5 (human)): 101%
residual activity (HIPK4 (human)): 88.7%
residual activity (INSR (human)): 83%
residual activity (JAK3 JH1 JH2 (human)): 92.5%
residual activity (LIMK1 (human)): 86.3%
residual activity (LRRK2 (human)): 77.7%
residual activity (MAP3K3 (human)): 102%
residual activity (MAP3K8 (human)): 101%
residual activity (MAP4K2 (human)): 97.6%
residual activity (MAPK8 (human)): 99%
residual activity (MST4 (human)): 100%
residual activity (NEK4 (human)): 94.4%
residual activity (NEK6 (human)): 91.3%
residual activity (PIM3 (human)): 84.9%
residual activity (PLK3 (human)): 86.4%
residual activity (PRKD1 (human)): 96.9%
residual activity (RIPK2 (human)): 88.1%
residual activity (ROCK2 (human)): 100%
residual activity (RPS6KA2 KD1 KD2 (human)): 69.4%
residual activity (SGK2 (human)): 103%
residual activity (SIK2 (human)): 92.2%
residual activity (SRPK3 (human)): 70.4%
residual activity (STK16 (human)): 102%
residual activity (TEK (human)): 93.8%
residual activity [1]: 95.2%
residual activity (ULK2 (human)): 97.7%
